ChEMBL document CHEMBL6134792, “Discovery of selective LATS inhibitors via scaffold hopping: enhancing drug-likeness and kinase selectivity for potential applications in regenerative medicine” (RSC Med Chem, 2024)

Assay: Clearance in male mouse at 20 mg/kg, po or 5 mg/kg, iv by LC-MS/MS analysis
Format: ADME, organism-based
Settings: in vivo

## O=C(/N=c1\sccn1Cc1ccccc1)c1n[nH]c2ncccc12
  CL: 28.3 mL/min/kg
